Measured values from ChEMBL document CHEMBL2311319, “Discovery of novel 1,4-dihydropyridine-based PDE4 inhibitors” (Bioorg Med Chem Lett, 2013).

Columns and labels:
[1] = target: T1, 3',5'-cyclic-AMP phosphodiesterase 4B (Homo sapiens, UniProt Q07343); test: Inhibition of recombinant PDE4B1 (unknown origin) expressed in Sf9 cells at 30 uM pre-incubated with compound for 15 mins before incubation with cAMP substrate for 1 hr
[2] = target: 3',5'-cyclic-AMP phosphodiesterase 4D (Homo sapiens, UniProt Q08499); test: Inhibition of recombinant PDE4D2 (unknown origin) expressed in Sf9 cells pre-incubated with compound for 15 mins before incubation with cAMP substrate for 1 hr
[3] = target: T1, 3',5'-cyclic-AMP phosphodiesterase 4B; test: Inhibition of recombinant PDE4B1 (unknown origin) expressed in Sf9 cells pre-incubated with compound for 15 mins before incubation with cAMP substrate for 1 hr
RAW264.7 = test: Inhibition of LPS-induced TNFalpha production in mouse RAW264.7 cells pre-incubated with compound for 30 mins before LPS challenge by ELISA; type: functional, cell-based

Sequence of 3',5'-cyclic-AMP phosphodiesterase 4D (Q08499 whole entry): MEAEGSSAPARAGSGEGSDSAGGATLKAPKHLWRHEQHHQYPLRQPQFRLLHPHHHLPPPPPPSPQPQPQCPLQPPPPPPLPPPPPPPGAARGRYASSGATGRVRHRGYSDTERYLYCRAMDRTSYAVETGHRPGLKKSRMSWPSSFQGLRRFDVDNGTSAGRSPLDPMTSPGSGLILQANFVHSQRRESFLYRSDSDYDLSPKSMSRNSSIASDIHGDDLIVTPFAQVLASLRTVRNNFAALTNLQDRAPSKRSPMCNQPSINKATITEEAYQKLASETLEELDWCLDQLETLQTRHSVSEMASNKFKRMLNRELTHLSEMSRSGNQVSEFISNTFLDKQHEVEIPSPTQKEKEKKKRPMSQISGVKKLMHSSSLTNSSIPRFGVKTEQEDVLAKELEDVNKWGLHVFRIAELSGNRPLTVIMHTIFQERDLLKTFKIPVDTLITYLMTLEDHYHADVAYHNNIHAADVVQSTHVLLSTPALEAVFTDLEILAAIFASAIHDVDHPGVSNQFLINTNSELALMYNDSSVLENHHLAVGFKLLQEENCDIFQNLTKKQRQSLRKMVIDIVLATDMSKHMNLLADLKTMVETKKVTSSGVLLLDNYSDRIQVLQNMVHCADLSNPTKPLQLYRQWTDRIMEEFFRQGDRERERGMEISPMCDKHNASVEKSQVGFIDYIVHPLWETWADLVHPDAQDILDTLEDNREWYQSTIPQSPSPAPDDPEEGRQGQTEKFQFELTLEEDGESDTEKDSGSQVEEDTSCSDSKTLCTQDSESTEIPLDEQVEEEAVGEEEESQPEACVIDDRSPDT
T1 sequence (Q07343 whole entry): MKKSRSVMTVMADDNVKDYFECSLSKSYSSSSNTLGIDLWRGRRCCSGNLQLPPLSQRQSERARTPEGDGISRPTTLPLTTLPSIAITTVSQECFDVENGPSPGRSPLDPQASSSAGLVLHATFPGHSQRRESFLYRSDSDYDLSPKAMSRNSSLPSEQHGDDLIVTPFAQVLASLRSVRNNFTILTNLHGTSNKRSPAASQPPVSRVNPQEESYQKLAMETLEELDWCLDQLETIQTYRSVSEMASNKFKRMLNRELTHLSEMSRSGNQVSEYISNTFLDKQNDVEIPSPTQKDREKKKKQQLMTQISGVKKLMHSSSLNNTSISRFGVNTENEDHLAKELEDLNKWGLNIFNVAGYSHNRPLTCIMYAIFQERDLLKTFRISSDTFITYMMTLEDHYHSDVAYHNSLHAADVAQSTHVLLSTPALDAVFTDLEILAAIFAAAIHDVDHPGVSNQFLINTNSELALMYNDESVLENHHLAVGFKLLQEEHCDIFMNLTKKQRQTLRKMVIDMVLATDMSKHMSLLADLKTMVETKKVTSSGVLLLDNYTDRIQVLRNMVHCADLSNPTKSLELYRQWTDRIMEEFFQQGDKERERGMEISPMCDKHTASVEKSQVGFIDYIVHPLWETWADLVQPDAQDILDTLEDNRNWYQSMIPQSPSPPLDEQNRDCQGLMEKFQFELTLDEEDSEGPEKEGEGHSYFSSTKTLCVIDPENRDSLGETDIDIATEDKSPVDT

SMILES	inhibition [1] [%]	also measured
CCOC(=O)C1=CN(Cc2ccccc2OC)C=C(C(=O)OCC)C1C1CC1	48	–
CCOC(=O)C1=CN(Cc2ccc(Cl)cc2)C=C(C(=O)OCC)C1c1ccc(Cl)cc1	15	–
CCOC(=O)C1=CN(c2ccccc2)C=C(C(=O)OCC)C1c1ccc(Cl)cc1	30.5	–
CCOC(=O)C1=CN(Cc2cccc(Cl)c2)C=C(C(=O)OCC)C1Cc1ccccc1	31	–
CCOC(=O)C1=CN(Cc2ccc(Cl)cc2)C=C(C(=O)OCC)C1c1cccc(F)c1	8	–
CCOC(=O)C1=CN(Cc2ccc(OC)c(OC)c2)C=C(C(=O)OCC)C1c1cccc([N+](=O)[O-])c1	88	IC50 [2]: 2890 nM; IC50 [3]: 1570 nM
CCOC(=O)C1=CN(c2ccc(Cl)cc2)C=C(C(=O)OCC)C1Cc1ccccc1	57.5	–
C=CCN1C=C(C(=O)OCC)C(c2ccc(O)cc2)C(C(=O)OCC)=C1	51.5	–
CCOC(=O)C1=CN(Cc2ccc(OC)c(OC)c2)C=C(C(=O)OCC)C1c1cccc2ccccc12	75	–
CCCCCCCCN1C=C(C(=O)OCC)C(c2ccc(OC)cc2)C(C(=O)OCC)=C1	25	–
CCOC(=O)C1=CN(Cc2ccc(OC)c(OC)c2)C=C(C(=O)OCC)C1c1c[nH]c2ccccc12	95	IC50 [2]: 650 nM; IC50 (RAW264.7): 3200 nM; IC50 [3]: 540 nM
CCCCCCCCCCCCCCCCN1C=C(C(=O)OCC)C(c2ccc(OC)cc2)C(C(=O)OCC)=C1	17	–
CCOC(=O)C1=CN(Cc2ccccc2Cl)C=C(C(=O)OCC)C1c1ccc(O)cc1	49	–
C=CCN1C=C(C(=O)OCC)C(c2ccc(Cl)cc2)C(C(=O)OCC)=C1	49.5	–
CCOC(=O)C1=CN(Cc2ccc(OC)c(OC)c2)C=C(C(=O)OCC)C1c1ccc(Cl)cc1	80	IC50 [2]: 2780 nM; IC50 [3]: 3710 nM

The next lines start with results.

inhibition [1] [%]	SMILES	also measured
23	CCOC(=O)C1=CN(c2ccc(Cl)cc2)C=C(C(=O)OCC)C1c1ccc(Cl)cc1	–
28	CCOC(=O)C1=CN(CC2CCCCC2)C=C(C(=O)OCC)C1c1ccc(Cl)cc1	–
42	CCOC(=O)C1=CN(Cc2ccc3c(c2)OCO3)C=C(C(=O)OCC)C1c1ccc(OC)cc1	–
79	CCOC(=O)C1=CN(Cc2ccc(OC)c(OC)c2)C=C(C(=O)OCC)C1Cc1ccccc1	–
33	CCOC(=O)C1=CN(Cc2ccccc2Cl)C=C(C(=O)OCC)C1c1ccccc1	–
28	CCOC(=O)C1=CN(Cc2ccc(OC)cc2)C=C(C(=O)OCC)C1c1cccc(F)c1	–
21	CCOC(=O)C1=CN(Cc2ccc(C(F)(F)F)cc2)C=C(C(=O)OCC)C1c1ccc(OC)cc1	–
33	CCOC(=O)C1=CN(c2ccc(OC)cc2)C=C(C(=O)OCC)C1c1ccc(Cl)cc1	–
58	CCOC(=O)C1=CN(Cc2ccccc2Cl)C=C(C(=O)OCC)C1c1ccc(OC)cc1	–
35	CCOC(=O)C1=CN(Cc2ccc(C(F)(F)F)cc2)C=C(C(=O)OCC)C1c1ccc(O)cc1	–
78	CCOC(=O)C1=CN(Cc2ccc(OC)c(OC)c2)C=C(C(=O)OCC)C1c1cccc(Cl)c1	–
38	CCOC(=O)C1=CN(Cc2ccc(OC)cc2)C=C(C(=O)OCC)C1c1ccc([N+](=O)[O-])cc1	–
23	CCOC(=O)C1=CN(Cc2ccc(OC)cc2)C=C(C(=O)OCC)C1c1ccc(Cl)cc1	–
72	CCOC(=O)C1=CN(Cc2ccc3c(c2)OCO3)C=C(C(=O)OCC)C1c1ccc(O)cc1	–
